The text below walks through data of patent US20090203908A1, “Activator for Peroxisome Proliferator-Activated Receptor” (NIPPON CHEMIPHAR CO., LTD., priority 2005, published 2009).

Like-named read-outs stand apart in the source and are kept apart here. Where only a bound is given, the exact number is not on record here.

One test deals with T1, hPPAR α (LBD) (Homo sapiens, UniProt Q07869).
T1 sequence (Q07869 239-466 limits assumed): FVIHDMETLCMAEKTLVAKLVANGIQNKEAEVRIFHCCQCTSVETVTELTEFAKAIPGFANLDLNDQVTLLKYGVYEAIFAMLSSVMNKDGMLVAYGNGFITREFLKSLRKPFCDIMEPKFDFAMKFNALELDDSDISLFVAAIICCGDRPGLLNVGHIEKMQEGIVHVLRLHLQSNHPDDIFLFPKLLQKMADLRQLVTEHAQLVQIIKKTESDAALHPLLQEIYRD
As to the kind of experiment: PPAR activating effect, GAL4-hPPARα (LBD) luciferase reporter in CV-1 cells. A general note: Reporter assays use an easily measured gene product as a stand-in for the process of interest.

In a further test the target is T2, hPPAR δ (LBD) (Homo sapiens, UniProt Q03181).
T2 sequence (Q03181 211-439 limits assumed): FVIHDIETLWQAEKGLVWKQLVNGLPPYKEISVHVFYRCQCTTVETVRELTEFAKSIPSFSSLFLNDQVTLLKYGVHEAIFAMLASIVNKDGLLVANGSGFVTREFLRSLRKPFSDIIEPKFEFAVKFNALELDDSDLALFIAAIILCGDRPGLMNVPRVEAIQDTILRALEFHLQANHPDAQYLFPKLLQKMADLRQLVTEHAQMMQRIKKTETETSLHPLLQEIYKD
As to the kind of experiment: PPAR activating effect, GAL4-hPPARδ (LBD) luciferase reporter in CV-1 cells.

The target in another test is T3, hPPAR γ (LBD) (Homo sapiens, UniProt P37231).
T3 sequence (P37231 238-503 limits assumed): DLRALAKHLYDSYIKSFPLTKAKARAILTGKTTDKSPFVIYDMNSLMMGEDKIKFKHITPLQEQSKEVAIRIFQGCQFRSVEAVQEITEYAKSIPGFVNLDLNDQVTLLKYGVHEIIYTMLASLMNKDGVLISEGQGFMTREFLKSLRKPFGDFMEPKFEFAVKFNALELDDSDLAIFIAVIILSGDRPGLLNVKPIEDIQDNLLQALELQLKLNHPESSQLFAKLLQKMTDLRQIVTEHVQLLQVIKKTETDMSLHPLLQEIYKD
Put plainly: PPAR activating effect, GAL4-hPPARγ (LBD) luciferase reporter in CV-1 cells.

The subject of a further test is hPPAR α or γ or δ (LBD). As to the kind of experiment: PPAR activating effect, overall assessment over the subtypes (GAL4-hPPAR luciferase reporter in CV-1 cells). To be noted: summary of Table 17, PPARα and PPARγ.

Protocol for hPPAR α (LBD): (§1) For determining PPAR activating effects of the compounds according to the invention were measured by the following method:
(§2) After gene transfer utilizing a lipofection reagent DMRIE-C or Lipofectamin 2000 (Invitrogen), it is incubated for 42 hours in the presence of the test compound. Then, the luciferase activity and β-GAL activity are measured on the soluble cells. The luciferase activity is calibrated by the β-GAL activity.
(§3) The PPAR activating effects of test compounds (compounds of Examples) were measured by the following method:
(§4) After gene transfer utilizing a lipofection reagent DMRIE-C or Lipofectamin 2000 (Invitrogen), it is incubated for approx. 40 hours in the presence of the test compound. Then, the luciferase activity and β-GAL activity are measured on the soluble cells. The luciferase activity is calibrated by the β-GAL activity. […] Then, EC50 was obtained.
Protocol for hPPAR α or γ or δ (LBD): as §1, §2, §3, §4
Protocol for hPPAR γ (LBD): as §1, §2, §3, §4
Protocol for hPPAR δ (LBD): as §1, §2, §3, §4

Usually EC50 stands for the concentration needed to bring the measured effect to its halfway point. As to `Cc1cc(C(=O)CCc2sc(-c3ccc(C(F)(F)F)cc3)nc2CN2CCN(c3ccc(OC(F)(F)F)cc3)CC2)ccc1OC(C)(C)C(=O)O` [Example 15, 2-[4-[3-[4-[4-(4-Trifluoromethoxyphenyl)piperazin-1-ylmethyl]-2-(4-trifluoromethylphenyl)-5-thiazol-yl]propionyl]-2-methylphenoxy]-2-methylpropionic Acid], the values for the EC50 at hPPAR α (LBD), at hPPAR δ (LBD) and at hPPAR γ (LBD) were 290 nM, 6300 nM and 750 nM, respectively.
As to `COc1ccc(N2CCN(Cc3nc(-c4ccc(C(F)(F)F)cc4)sc3CCC(=O)c3ccc(OC(C)(C)C(=O)O)c(C)c3)CC2)cc1` [Example 3, 2-[4-[3-[4-[4-(4-Methoxyphenyl)piperazin-1-yl-methyl]-2-(4-trifluoromethylphenyl)-5-thiazolyl]propionyl]-2-methylphenoxy]-2-methylpropionic Acid], the EC50 is above 10000 nM at hPPAR α (LBD), 920 nM on hPPAR δ (LBD) and 660 nM on hPPAR γ (LBD).
In the case of `COc1ccc(CC2SC(=O)NC2=O)cc1C(=O)NCc1ccc(C(F)(F)F)cc1` (stereo not shown) [KRP-297, reference compound], at hPPAR δ (LBD) (read-out: PPAR activity: EC50, δ, CV-1 cells, approx. 40 hours incubation, 100% control GW-501516 10^−7 M), the EC50 came out at 13900 nM.
Consider `Cc1cc(C(=O)CCc2sc(-c3ccc(C(F)(F)F)cc3)nc2CN2CCN(c3ccc(OC(C)C)cc3)CC2)ccc1OC(C)(C)C(=O)O` [Example 16, 2-[4-[3-[4-[4-(4-Isopropyloxyphenyl)piperazin-1-ylmethyl]-2-(4-trifluoromethylphenyl)-5-thiazolyl]propionyl]-2-methylphenoxy]-2-methylpropionic Acid], for which the EC50 at hPPAR α (LBD) was found to be 180 nM; on hPPAR δ (LBD), 2300 nM; at hPPAR γ (LBD), 290 nM. The “α/γ dual agonist effects (in words)” value in the test with hPPAR α or γ or δ (LBD) is reported as “good α/γ dual agonist effects”.
Take `CCOc1ccc(N2CCN(Cc3nc(-c4ccc(C(F)(F)F)cc4)sc3CCC(=O)c3ccc(OC(C)(C)C(=O)O)c(C)c3)CC2)cc1` [Example 13, 2-[4-[3-[4-[4-(4-Ethoxyphenyl)piperazin-1-yl-methyl]-2-(4-trifluoromethylphenyl)-5-thiazolyl]propionyl]-2-methylphenoxy]-2-methylpropionic Acid]: the EC50 on hPPAR α (LBD) was 330 nM; at hPPAR δ (LBD), 1100 nM; on hPPAR γ (LBD), 280 nM.
For `Cc1cc(C(=O)CCc2sc(-c3ccc(C(F)(F)F)cc3)nc2CN2CCN(c3ccc(C(F)(F)F)cc3)CC2)ccc1OC(C)(C)C(=O)O` [Example 5, 2-[4-[3-[4-[4-(4-Trifluoromethylphenyl)-piperazin-1-ylmethyl]-2-(4-trifluoromethylphenyl)-5-thiazolyl]propionyl]-2-methylphenoxy]-2-methylpropionic Acid], the EC50 on hPPAR α (LBD) turned out to be 90 nM; at hPPAR δ (LBD), 5200 nM; at hPPAR γ (LBD), 3200 nM. For the same molecule, the “PPARα agonist effect (in words)” value at hPPAR α (LBD) (summary of Table 17) is “strong and selective PPARα agonist effect”.
Regarding `Cc1cc(C(=O)CCc2sc(-c3ccc(C(F)(F)F)cc3)nc2CN2CCN(c3ccc(C(C)C)cc3)CC2)ccc1OC(C)(C)C(=O)O` [Example 11, 2-[4-[3-[4-[4-(4-Isopropylphenyl)piperazin-1-ylmethyl]-2-(4-trifluoromethylphenyl)-5-thiazolyl]propionyl]-2-methylphenoxy]-2-methylpropionic Acid], the EC50 at hPPAR α (LBD) stood at 92 nM; on hPPAR δ (LBD), 3000 nM; on hPPAR γ (LBD), 300 nM. The “α/γ dual agonist effects (in words)” value in the test with hPPAR α or γ or δ (LBD) is “good α/γ dual agonist effects”.
Consider `COc1cccc(N2CCN(Cc3nc(-c4ccc(C(F)(F)F)cc4)sc3CCC(=O)c3ccc(OC(C)(C)C(=O)O)c(C)c3)CC2)c1` [Example 4, 2-[4-[3-[4-[4-(3-Methoxyphenyl)piperazin-1-yl-methyl]-2-(4-trifluoromethylphenyl)-5-thiazolyl]propionyl]-2-methylphenoxy]-2-methylpropionic Acid], for which the EC50 on hPPAR α (LBD) was found to be 210 nM; on hPPAR δ (LBD), 4400 nM; on hPPAR γ (LBD) it was 1300 nM.
The corresponding values for `COc1ccc(N2CCN(Cc3nc(-c4ccc(C(F)(F)F)cc4)sc3CCC(=O)c3ccc(OC(C)(C)C(=O)O)c(C)c3)CC2)cc1OC` [Example 12, 2-[4-[3-[4-[4-(3,4-Dimethoxyphenyl)piperazin-1-ylmethyl]-2-(4-trifluoromethylphenyl)-5-thiazolyl]propionyl]-2-methylphenoxy]-2-methylpropionic Acid] are 940 nM, 3800 nM and 1700 nM.
`Cc1ccc(N2CCN(Cc3nc(-c4ccc(C(F)(F)F)cc4)sc3CCC(=O)c3ccc(OC(C)(C)C(=O)O)c(C)c3)CC2)cc1` [Example 6, 2-[4-[3-[4-[4-(4-Methylphenyl)piperazin-1-yl-methyl]-2-(4-trifluoromethylphenyl)-5-thiazolyl]propionyl]-2-methylphenoxy]-2-methylpropionic Acid]: the EC50 at hPPAR α (LBD) was determined as 550 nM; at hPPAR δ (LBD), 4900 nM; on hPPAR γ (LBD), 490 nM.
